In patent US8673904B2, “Epoxide inhibitors of cysteine proteases” (The Board of Trustees of the Leland Stanford Junior …, priority 2006, dated 2014):

Tests used:
CatB = target: T1, CatB (Rattus norvegicus, UniProt P00787); experiment: IC50 by competition with radiolabeled general cathepsin probe DCG-04 in rat liver lysate; type: biochemical; conditions: 1 mg/ml rat liver lysate, inhibitor 20 minutes, then DCG-04 1 hour
T1 construct: from tissue; host or cells: rat liver lysate / homogenate
Procedure: (§1) Also included in the table for comparison are known compounds JPMOEt and JPMOH (also known as JPM-565). See Meara and Rich, J. Med. Chem. 39:3357-3366, 1996; Bogyo et al, Chem. Biol. 7:27-38, 2000; and Joyce et al., Cancer Cell 5:443-453, 2004. The table also lists cathepsin targets and measured IC50 values for specific compounds. To determine these values, 1 mg/ml of rat liver lysate was incubated with a series of concentrations of the inhibitor for 20 minutes. Then, 1 ul of a radiolabled general cathepsin probe, DCG-04, was added to the solutions and incubated for 1 hour. After fixing and drying the gel, the residual enzyme activity was measured using ImageJ software. The measurements were then transferred to GraphPad Prism 4 to calculate the IC50 values.

CatC = target: T2, CatC (Rattus norvegicus, UniProt P80067); experiment: as above; type: biochemical; conditions: 1 mg/ml rat liver lysate, inhibitor 20 minutes, then DCG-04 1 hour
T2 construct: from tissue; host or cells: rat liver lysate
T2 sequence (P80067 25-462): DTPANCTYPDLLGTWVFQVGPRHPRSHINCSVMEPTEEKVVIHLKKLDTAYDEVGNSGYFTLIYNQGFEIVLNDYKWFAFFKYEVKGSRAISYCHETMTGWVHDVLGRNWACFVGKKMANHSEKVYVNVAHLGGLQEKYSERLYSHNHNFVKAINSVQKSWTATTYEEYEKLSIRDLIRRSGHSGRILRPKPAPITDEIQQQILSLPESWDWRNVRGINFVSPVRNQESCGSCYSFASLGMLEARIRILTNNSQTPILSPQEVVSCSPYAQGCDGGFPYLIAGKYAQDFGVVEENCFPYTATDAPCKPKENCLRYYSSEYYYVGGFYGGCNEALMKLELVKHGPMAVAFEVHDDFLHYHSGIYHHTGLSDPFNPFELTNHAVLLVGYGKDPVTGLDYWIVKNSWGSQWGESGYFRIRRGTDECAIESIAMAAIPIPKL
Procedure: as §1

CatH = target: T3, CatH (Rattus norvegicus, UniProt P00786); experiment: as above; type: biochemical; conditions: 1 mg/ml rat liver lysate, inhibitor 20 minutes, then DCG-04 1 hour
T3 construct: from tissue; host or cells: rat liver lysate
T3 sequence (P00786 96-333): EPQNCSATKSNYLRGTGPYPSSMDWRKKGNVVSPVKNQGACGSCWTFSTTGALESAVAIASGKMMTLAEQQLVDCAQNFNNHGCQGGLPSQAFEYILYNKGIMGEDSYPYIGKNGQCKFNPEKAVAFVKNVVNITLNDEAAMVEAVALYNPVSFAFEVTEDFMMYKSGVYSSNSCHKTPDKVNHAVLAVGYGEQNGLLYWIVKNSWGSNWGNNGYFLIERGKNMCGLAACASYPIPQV
Procedure: as §1

CatZ (Cathepsin Z) = target: T4, CatZ (Cathepsin Z) (Rattus norvegicus, UniProt Q9R1T3); experiment: as above; type: biochemical; conditions: 1 mg/ml rat liver lysate, inhibitor 20 minutes, then DCG-04 1 hour
T4 construct: from tissue; host or cells: rat liver lysate
T4 sequence (Q9R1T3 64-306): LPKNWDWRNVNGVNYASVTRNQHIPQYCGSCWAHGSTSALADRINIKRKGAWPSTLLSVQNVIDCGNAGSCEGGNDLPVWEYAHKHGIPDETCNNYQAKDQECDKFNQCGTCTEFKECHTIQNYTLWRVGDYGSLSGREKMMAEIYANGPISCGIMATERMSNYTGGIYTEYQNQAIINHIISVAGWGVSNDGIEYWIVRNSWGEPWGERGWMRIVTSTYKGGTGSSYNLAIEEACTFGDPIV
Procedure: as §1

cathepsin targets = experiment: Cathepsin targets of the compounds (Table 4); type: biochemical, rat; conditions: cathepsin target(s) inhibited; General = all cathepsins
Procedure: as §1

cathepsin B = target: T5, cathepsin B (Rattus norvegicus, UniProt P00787); experiment: Competition in rat liver homogenates, 125I-labeled JPM-OEt labeling; type: biochemical; conditions: FIG. 2, rat liver homogenates
T5 construct: from tissue; host or cells: rat liver lysate / homogenate
T5 sequence (P00787 80-333): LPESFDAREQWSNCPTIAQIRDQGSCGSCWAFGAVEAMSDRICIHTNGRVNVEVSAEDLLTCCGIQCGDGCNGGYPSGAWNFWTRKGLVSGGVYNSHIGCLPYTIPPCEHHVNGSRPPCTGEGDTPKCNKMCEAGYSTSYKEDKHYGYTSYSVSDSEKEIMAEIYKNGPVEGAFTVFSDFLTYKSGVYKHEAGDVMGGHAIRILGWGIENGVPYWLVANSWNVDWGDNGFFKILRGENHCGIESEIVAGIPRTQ
Procedure: (§2) The library compounds all contained a tyrosine residue at the R3 position. They contained either a leucine residue (top and middle panels) or a 4-methylphenylalanine residue (bottom panel) at the A2 position. The amine at R1 is indicated above each panel, with numbering as defined in Table 1. Samples were analyzed by SDS-PAGE followed by autoradiography. Controls (C) are shown where DMSO was added in place of the inhibitor. The parent compounds JPM-OEt (Et) and JPM-565 (OH) are also included as positive controls. Note the loss of reactivity for all (2R,3R) compounds and the change in specificity of JPM analogs in which the (2R,3R) (middle panel—OH and Et) is used in place of the (2S,3S) (top panel—OH and Et) epoxides.
(§3) Joyce et al., Cancer Cell 5:443-453, 2004.
(§4) FIGS. 3 and 4 show additional competition assays with other compounds of the invention at various concentrations. The compounds were added to total rat liver extracts at the indicated concentrations, as described above, and the mixtures were subsequently treated with ^125I-labeled JPM-OEt to label proteins with residual activity. The in vivo pharmacokinetic properties, potency, and selectivity of some of these compounds are further described in Sadaghiani et al., Chem. Biol. 14:499-511, 2007, which is incorporated herein by reference in its entirety.

other cathepsin targets = experiment: Competition/profiling in total rat liver extracts, 125I-labeled JPM-OEt labeling; type: biochemical; conditions: FIG. 2, at concentrations as high as 50 micromolar
Procedure: as §2, §3, §4

RIP-Tag cancer model = conditions: Joyce et al., Cancer Cell 5:443-453, 2004; cited from earlier work

T1 sequence (P00787 80-333): as above

| IC50 (CatB) [nM] | IC50 (CatC) [µM] | IC50 (CatH) [µM] | IC50 (CatZ (Cathepsin Z)) [nM] | Compound | Target (cathepsin targets) | potency for cathepsin B compared to parent compound JPM-565 (cathepsin B) | activity against other cathepsin targets (other cathepsin targets) | efficacy in the RIP-Tag cancer model (RIP-Tag cancer model) |
| --- | --- | --- | --- | --- | --- | --- | --- | --- |
| 10 | > 50 | > 50 | > 10000 | CC(C)C[C@H](NC(=O)C1OC1C(=O)NCCc1ccc(O)cc1)C(=O)N[C@@H](Cc1ccc(O)cc1)C(N)=O (single isomer, unassigned) [Compound 46] | Cat B | retain similar potency for cathepsin B compared to parent compound JPM-565 | little or no activity against other cathepsin targets |  |
|  | > 10 | > 10 | 100 | Cc1ccc(C[C@H](NC(=O)[C@H]2OC2C(=O)NCC(=O)O)C(=O)N[C@@H](Cc2ccc(O)cc2)C(N)=O)cc1 (stereo partly shown) [Compound 16] | Cat Z^1 |  |  |  |
| 20 | 11 | 21 | > 10000 | CC(C)C[C@H](NC(=O)C1OC1C(=O)NCCc1ccc(O)cc1)C(=O)N[C@@H](Cc1ccc(O)cc1)C(N)=O (stereo partly shown) [Compound 25] | Cat B |  |  |  |
| 10 | 11 | 5.45 | 1100 | CC(C)C[C@H](NC(=O)C1OC1C(=O)NCCCO)C(=O)N[C@@H](Cc1ccc(O)cc1)C(N)=O (stereo partly shown) [Compound 31] | Cat B |  |  |  |
| 20 | 0.2 | 5.45 | 100 | CC(C)C[C@H](NC(=O)[C@H]1OC1C(=O)O)C(=O)N[C@@H](Cc1ccc(O)cc1)C(N)=O (stereo partly shown) [Compound 40] | General |  |  |  |
| 50 | > 50 | > 50 | 1800 | CC(C)C[C@H](NC(=O)C1O[C@H]1C(=O)NCCCO)C(=O)N[C@@H](Cc1ccc(O)cc1)C(N)=O (stereo partly shown) [Compound 52] | Cat B | retain similar potency for cathepsin B compared to parent compound JPM-565 | little or no activity against other cathepsin targets |  |
| 400 | > 25 | > 25 | 100 | CC(C)C[C@H](NC(=O)C1OC1C(=O)O)C(=O)N[C@@H](Cc1ccc(O)cc1)C(N)=O (stereo partly shown) [Compound 60] | Cat B & Z |  |  |  |
| 310 | > 10 | > 10 | > 10000 | CC(C)C[C@H](NC(=O)[C@H]1O[C@@H]1C(=O)NCCc1ccc(O)cc1)C(=O)NCCc1ccccn1 [Compound 63] | Cat B & Z |  |  |  |
| 320 | 5.69 | 6.2 | 800 | CC(C)C[C@H](NC(=O)[C@H]1O[C@@H]1C(=O)NCCc1ccc(O)cc1)C(=O)NCc1cccc2ccccc12 [Compound 66] | General |  |  |  |
| 1950 | > 25 | > 25 | 300 | NC(=O)[C@H](Cc1ccc(O)cc1)NC(=O)[C@H](CC1CCCCC1)NC(=O)C1OC1C(=O)O (stereo partly shown) [Compound 74] | Cat B & Z |  |  |  |
| 270 | > 25 | > 25 | 200 | CCC[C@H](NC(=O)C1O[C@H]1C(=O)O)C(=O)N[C@@H](Cc1ccc(O)cc1)C(N)=O (stereo partly shown) [Compound 75] | Cat B & Z |  |  |  |
| 6800 | > 25 | > 25 | 200 | Cc1ccc(C[C@H](NC(=O)C2O[C@H]2C(=O)O)C(=O)N[C@@H](Cc2ccc(O)cc2)C(N)=O)cc1 (stereo partly shown) [Compound 76] | Cat Z |  |  |  |
| 30 | 0.45 | 0.74 | 100 | CCC[C@H](NC(=O)C1O[C@@H]1C(=O)O)C(=O)N[C@@H](Cc1ccc(O)cc1)C(N)=O (stereo partly shown) [Compound 77] | General |  |  |  |
| 280 | > 10 | > 10 | 1000 | CCC[C@H](NC(=O)C1O[C@H]1C(=O)NCC(=O)O)C(=O)N[C@@H](Cc1ccc(O)cc1)C(N)=O (stereo partly shown) [Compound 78] | Cat B |  |  |  |
| 190 | 19.3 | 5.85 | 1300 | CCC[C@H](NC(=O)C1O[C@@H]1C(=O)NCC(=O)O)C(=O)N[C@@H](Cc1ccc(O)cc1)C(N)=O (stereo partly shown) [Compound 79] | Cat B |  |  |  |
| > 10000 | > 10 | > 10 | 800 | Cc1ccc(C[C@H](NC(=O)C2O[C@H]2C(=O)NCC(=O)O)C(=O)N[C@@H](Cc2ccc(O)cc2)C(N)=O)cc1 (stereo partly shown) [Compound 80] | Cat B & Z |  |  |  |
| 40 | 8.9 | 4.65 | 200 | CCOC(=O)[C@H]1O[C@@H]1C(=O)N[C@@H](CC(C)C)C(=O)NCCc1ccc(O)cc1 [JPMOEt, reference compound] | General |  |  |  |
| 400 | 1 | 0.58 | 100 | CC(C)C[C@H](NC(=O)[C@H]1O[C@@H]1C(=O)O)C(=O)NCCc1ccc(O)cc1 [JPMOH, reference compound] | General |  |  | shown to have efficacy in the RIP-Tag cancer model |
